Measurements reported in patent publication US6403788B1, “Non-genotoxic metalloporphyrins as synthetic catalytic scavengers of reactive oxygen species” (Eukarion, Inc., priority 2000, dated 2002).

Legend:
[1] = Catalase turnover assay, total hydrogen peroxide consumed before inactivation; type: biochemical; conditions: to completion, 15.8 μM compound, 1582 μM hydrogen peroxide, 5 mM Na phosphate pH 7.4
Description: (§1) Catalase activity was measured by incubating the sample compound with hydrogen peroxide and determining the amount of hydrogen peroxide remaining after a period of time using a colorimetric peroxidase-coupled assay method. 10 μM sample compound and 100 μM hydrogen peroxide in 40 mM sodium phosphate pH 7.4 were incubated together at ambient temperature in a multi-well plate. After the desired reaction period had elapsed, 20 μl of peroxidase/ABTS reagent was added (peroxidase/ABTS reagent contained 100 μl of 50 mM Na phosphate, pH 7.4, 1 mg horseradish peroxidase (1310 U/mg) and […]). After five minutes, absorbance at 750 nm was determined. The amount of hydrogen peroxide remaining was calculated based on a standard curve. To compare rates of catalase reaction, the amount of hydrogen peroxide consumed at 20 minutes was determined (See table III). It was also of interest to determine the total number of turnovers completed by the compound before inactivation by hydrogen peroxide. This was assayed under similar conditions, except that 15.8 μM compound was combined with 1582 μM hydrogen peroxide in 5 mM Na phosphate, pH 7.4. Reactions were allowed to proceed to completion and then the amount of hydrogen peroxide remaining was determined as described above. Results showing […] in the turnover assay (nmoles hydrogen peroxide per nmole compound) are also shown in Table III.

[2] = system: ΦX 174 DNA Plasmid (Form I); assay: Cleavage of ΦX 174 DNA plasmid (form I), compound alone or activated with KHSO5; type: biochemical, phage ΦX 174; conditions: for S (single-strand breaks per DNA molecule) / form % I / form % II / form % III: DNA 3.5 nM, compound 10 nM
Excerpt: The DNA cleavage activity was quantified in terms of number of single-strand breaks per DNA molecule according to the equation […], Io=% form I (supercoiled DNA) in the DNA control, and I=% form I in the experiment (see Bernadou et al, Biochemistry, 28: 7268-7275, (1989)). This assay is very sensitive and is able to detect very low levels of DNA activity. S values less than S=1.0 are indicative of very low DNA cleavage activity when the compounds are at a concentration of equal to or less than 1000 nM and KHSO5 is present at a concentration of equal to or less than 100 μM.
ΦX 174 DNA digestion conditions for standard experiments were as follows: commercially available DNA was diluted to 50 μg/mL in phosphate buffer (10 mM, pH 7.5). The reaction involved 5 μL of ΦX 174 DNA (50 μg/mL, 74.8 μM in base pairs), 5 μL of 40 mM phosphate buffer, pH 7.5 with 400 mM NaCl, 5 μL of metalloporphyrin in double-distilled water or 5 μL of iron-bleomycin complex in double-distilled water, and 5 μL of KHSO5 or 5 μL of H2O2 or 5 μL of ascorbate in double-distilled water. Preincubation of DNA and metalloporphyrins or iron-bleomycin complex was performed for about 15 min. The digestion time in the presence of KHSO5 was 10 min, of H2O2 was 30 min and of ascorbate was 30 min at 20° C. DNA cleavage was monitored by agarose gel electrophoresis. Reactions with KHSO5 were first quenched by 2 μL of 100 mM Hepes buffer, pH 8. In all cases, reactions were quenched by 5 μL of a stopping reagent. The stopping reagent consisted of 250 mM Hepes buffer, pH 7.4, containing 75% glycerol and 0.05% bromophenol blue. Reaction mixtures were then run in 0.8% agarose slab horizontal gel containing ethidium bromide […], at constant current (25 mA for 15h), in 89 mM Tris-borate buffer and 2.5 mM EDTA pH 8.3. Bands were located by WV light (254 nm), photographed, and quantitated by microdensitometry. The correction coefficient 1.47±0.30 was used for decreased stainability of form I DNA vs form II DNA and form III DNA.

[3] = Superoxide dismutase activity, xanthine-xanthine oxidase / cytochrome C; type: biochemical; conditions: reciprocal of IC50; xanthine 60 μM, xanthine oxidase 0.009 units/ml, cytochrome C 27.8 μM
Description: Superoxide Dismutase Activity was measured by incubating the compound with a superoxide generating system (Xanthine, 60 μM-Xanthine Oxidase, 0.009 units/ml) and a detector molecule (Cytochrome C, 27.8 μM). Upon reacting with a molecule of superoxide, Cytochrome C undergoes a spectrum-shift which can be detected as an increase in absorbance at 550 nm. In this assay procedure, the reactant concentrations were adjusted to give a reaction rate close to 0.1 AU/min. at 2-3 min. after the reaction began. Addition of compounds with Superoxide Dismutase activity reduce the rate of absorbance change. Compounds were assayed at several concentrations (typically at 0, 2, 4, and 8 μM) and the resulting rates were graphed and fitted to a linear regression formula. The linear regression formula was then solved to determine the concentration of compound required to reduce the reaction rate to 50% of the rate without compound present (IC50).

[4] = system: ΦX 174 DNA Plasmid (Form I); conditions: literature (Bernadou 1989, Vialas 2000, Meunier 1992); cited from earlier work
[5] = Peroxidase activity, ABTS oxidation; type: biochemical; conditions: 10 μM compound, 200 μM hydrogen peroxide, 500 μM ABTS, pH 8.1, 740 nm
Description: Peroxidase activity was measured by incubating 10 μM compound, 200 μM hydrogen peroxide and 500 μM ABTS in 50 mM sodium phosphate, pH 8.1. The rate of ABTS oxidation was monitored at 740 nm and initial rates (change in absorbance per min.) determined.

[6] = Catalase activity, hydrogen peroxide consumed at 20 minutes; type: biochemical; conditions: over 20 minutes; 10 μM compound, 100 μM hydrogen peroxide, 40 mM sodium phosphate pH 7.4
Description: as §1

[7] = system: CBA/J female mice, oxazolone-induced inflammatory ear edema; assay: Delayed type hypersensitivity: oxazolone-induced ear edema; type: in vivo
Excerpt: CBA/J female mice (Jackson Labs, Bar Harbor, ME) 7 weeks of age were pre-sensitized with 3% oxazolone (Sigma Chemical Co., St. Louis, Mo.) in 99.9% acetone, on the abdomen. After 8 days, the mice were challenged with 1.2% oxazolone topically on one ear to induce an inflammatory edema. Either Structural Formula V, Structural Formula IV at a dose of 7 nmoles/ear each, or ethanol, i.e. vehicle control (eight mice per study group), was applied topically to the ear immediately after the oxazolone challenge. Ear edema was measured by comparing the tissue water content (the wet weight minus the dry weight) of the challenged ear to that of the control ear. The percent edema (% water in the right ear-left ear) in the vehicle control was 6.5% and 2.1% and 3.9% for Structural Formula V and Structural Formula IV, respectively at a dose of 7 nmoles/ear.

| SMILES | CATALASE** H2O2 Consumption [1] | S (single-strand breaks per DNA molecule) ([2]; KHSO5 10 μM) | form % I ([2]; KHSO5 10 μM) | form % II ([2]; KHSO5 10 μM) | form % III ([2]; KHSO5 10 μM) | S (single-strand breaks per DNA molecule) ([2]; without KHSO5) | form % I ([2]; without KHSO5) | form % II ([2]; without KHSO5) | form % III ([2]; without KHSO5) | times more active in DNA cleavage than Structural Formula V ([2]; same concentration (10 nM), with KHSO5, from experiments 6, 9 and 10) | Cyt C SOD 1/(IC50, μM) [3] | oxidative DNA cleavage (literature statement) [4] | PEROXIDASE Initial Rate [5] | CATALASE* Rate at 20 mins. [6] | effect on edema compared to vehicle ([7]; 7 nmoles/ear topically) | percent edema (% water in the right ear-left ear) ([7]; 7 nmoles/ear topically immediately after oxazolone challenge, vehicle control 6.5%) |
| --- | --- | --- | --- | --- | --- | --- | --- | --- | --- | --- | --- | --- | --- | --- | --- | --- |
| C[n+]1ccc(-c2c3nc(c(-c4cc[n+](C)cc4)c4ccc([n-]4)c(-c4cc[n+](C)cc4)c4nc(c(-c5cc[n+](C)cc5)c5ccc2[n-]5)C=C4)C=C3)cc1.[Mn+3] [MnTMPyP, 5, 10, 15, 20 meso-tetrakis(4-methylpyridiniumyl)porphyrinato-manganese (III), reference compound] | 31.1 nmole H2O2/nmole Structural Formula compound | 15.3 SSBs | 1% | 86% | 13% | 0.03 SSBs | 90% | 10% | 0% | 1527 times | 0.143 µM⁻¹ | able to generate DNA damage at nanomolar concentrations | 0.0672 change in absorbance per min. | 3.4 nmole H2O2/nmole Structural Formula compound |  |  |
| CC[NH+](CC)CCNS(=O)(=O)c1c(C)cc(C)c(C2=C3C=CC4=[N+]3[Mn-]35[n]6c2ccc6C(c2c(C)cc(C)c(S(=O)(=O)NCC[NH+](CC)CC)c2C)=C2C=CC(=[N+]23)C(c2c(C)cc(C)c(S(=O)(=O)NCC[NH+](CC)CC)c2C)=c2ccc([n]25)=C4c2c(C)cc(C)c(S(=O)(=O)NCC[NH+](CC)CC)c2C)c1C.[Cl-].[Cl-].[Cl-].[Cl-].[Cl-] [Structural Formula IV, meso-tetrakis[3-(N-(2-(N,N-diethylammonio)ethyl)aminosulfonyl)-2,4,6-trimethylphenyl]porphyrinato diaqua-manganese (III) pentachloride] | 189.9 nmole H2O2/nmole Structural Formula compound |  |  |  |  |  |  |  |  |  | 0.043 µM⁻¹ |  | 0.021 change in absorbance per min. | 1.0 nmole H2O2/nmole Structural Formula compound | effective in reducing the percentage of edema | 3.9% |
